Laboratory results published in paper PMC9391358, “Crystal structures reveal catalytic and regulatory mechanisms of the dual-specificity ubiquitin/FAT10 E1 enzyme Uba6” (Nature Communications, 2022).

How the values were obtained:
Uba6 SCCH domain = target: T1, Uba6 SCCH domain (Homo sapiens, UniProt A0AVT1); assay: thermal shift assay (SYPRO Orange); format: binding; details: ~43 °C without ligand, 20 mM HEPES pH 7.5, 150 mM NaCl, 0.25 mM TCEP, E. coli-derived
T1 construct: standalone SCCH domain, residues 615-892, E. coli, SMT3 tag cleaved by ULP1
T1 sequence (A0AVT1 615-892): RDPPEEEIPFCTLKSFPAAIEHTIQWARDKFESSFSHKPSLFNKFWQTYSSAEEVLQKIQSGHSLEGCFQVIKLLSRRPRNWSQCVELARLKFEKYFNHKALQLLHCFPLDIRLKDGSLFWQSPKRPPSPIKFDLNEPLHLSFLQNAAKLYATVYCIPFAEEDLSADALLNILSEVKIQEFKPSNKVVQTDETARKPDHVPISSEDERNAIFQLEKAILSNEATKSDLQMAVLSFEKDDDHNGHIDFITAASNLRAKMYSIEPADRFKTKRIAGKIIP

Uba6 (Uba6_Apo; Uba6_WT) [1] = target: T2, Uba6 (Uba6_Apo; Uba6_WT) (Homo sapiens, UniProt A0AVT1); assay: isothermal titration calorimetry; format: binding
T2 construct: residues 37-1052; crystal from insect cells, His tag cleaved by TEV, C625A
T2 sequence (A0AVT1 37-1052): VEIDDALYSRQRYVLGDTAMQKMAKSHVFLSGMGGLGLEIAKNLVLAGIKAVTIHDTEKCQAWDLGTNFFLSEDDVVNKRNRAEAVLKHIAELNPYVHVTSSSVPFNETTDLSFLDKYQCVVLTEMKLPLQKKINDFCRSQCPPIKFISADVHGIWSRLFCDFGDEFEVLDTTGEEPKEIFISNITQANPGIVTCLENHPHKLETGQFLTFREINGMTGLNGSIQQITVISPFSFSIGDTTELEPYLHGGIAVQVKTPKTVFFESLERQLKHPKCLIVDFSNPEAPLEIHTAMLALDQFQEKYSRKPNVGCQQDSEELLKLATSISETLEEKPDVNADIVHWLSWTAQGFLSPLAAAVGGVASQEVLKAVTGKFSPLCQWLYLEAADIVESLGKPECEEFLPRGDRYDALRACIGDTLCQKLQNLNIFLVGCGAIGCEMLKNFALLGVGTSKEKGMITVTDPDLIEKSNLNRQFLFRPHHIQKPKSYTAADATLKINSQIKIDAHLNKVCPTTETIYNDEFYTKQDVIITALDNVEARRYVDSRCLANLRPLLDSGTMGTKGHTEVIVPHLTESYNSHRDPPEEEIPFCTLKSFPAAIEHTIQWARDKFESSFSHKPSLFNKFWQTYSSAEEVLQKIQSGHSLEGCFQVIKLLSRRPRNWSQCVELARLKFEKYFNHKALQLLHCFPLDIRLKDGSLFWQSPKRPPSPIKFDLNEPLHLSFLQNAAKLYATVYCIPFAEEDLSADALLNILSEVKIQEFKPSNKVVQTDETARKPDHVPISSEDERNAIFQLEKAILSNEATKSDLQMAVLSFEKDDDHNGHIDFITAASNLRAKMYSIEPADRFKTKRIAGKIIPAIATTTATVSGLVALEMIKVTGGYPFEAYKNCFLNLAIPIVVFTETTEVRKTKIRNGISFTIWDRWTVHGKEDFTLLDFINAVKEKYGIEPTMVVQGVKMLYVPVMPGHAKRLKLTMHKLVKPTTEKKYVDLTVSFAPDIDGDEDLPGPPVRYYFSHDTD

Uba1 (Uba1_WT) = target: T3, Uba1 (Uba1_WT) (Homo sapiens, UniProt P22314); assay: gel-based Uba1~Ub thioester formation, […] s; format: biochemical; details: ubiquitin 2.5 μM, 0-50 μM InsP6, 100 nM E1, 500 μM ATP, 5 mM MgCl2, pH 7.4, RT
T3 construct: E. coli-produced Uba1; a Uba1 SCCH domain (625-892) was also made and may be the ITC sample
T3 sequence (P22314 2-1058): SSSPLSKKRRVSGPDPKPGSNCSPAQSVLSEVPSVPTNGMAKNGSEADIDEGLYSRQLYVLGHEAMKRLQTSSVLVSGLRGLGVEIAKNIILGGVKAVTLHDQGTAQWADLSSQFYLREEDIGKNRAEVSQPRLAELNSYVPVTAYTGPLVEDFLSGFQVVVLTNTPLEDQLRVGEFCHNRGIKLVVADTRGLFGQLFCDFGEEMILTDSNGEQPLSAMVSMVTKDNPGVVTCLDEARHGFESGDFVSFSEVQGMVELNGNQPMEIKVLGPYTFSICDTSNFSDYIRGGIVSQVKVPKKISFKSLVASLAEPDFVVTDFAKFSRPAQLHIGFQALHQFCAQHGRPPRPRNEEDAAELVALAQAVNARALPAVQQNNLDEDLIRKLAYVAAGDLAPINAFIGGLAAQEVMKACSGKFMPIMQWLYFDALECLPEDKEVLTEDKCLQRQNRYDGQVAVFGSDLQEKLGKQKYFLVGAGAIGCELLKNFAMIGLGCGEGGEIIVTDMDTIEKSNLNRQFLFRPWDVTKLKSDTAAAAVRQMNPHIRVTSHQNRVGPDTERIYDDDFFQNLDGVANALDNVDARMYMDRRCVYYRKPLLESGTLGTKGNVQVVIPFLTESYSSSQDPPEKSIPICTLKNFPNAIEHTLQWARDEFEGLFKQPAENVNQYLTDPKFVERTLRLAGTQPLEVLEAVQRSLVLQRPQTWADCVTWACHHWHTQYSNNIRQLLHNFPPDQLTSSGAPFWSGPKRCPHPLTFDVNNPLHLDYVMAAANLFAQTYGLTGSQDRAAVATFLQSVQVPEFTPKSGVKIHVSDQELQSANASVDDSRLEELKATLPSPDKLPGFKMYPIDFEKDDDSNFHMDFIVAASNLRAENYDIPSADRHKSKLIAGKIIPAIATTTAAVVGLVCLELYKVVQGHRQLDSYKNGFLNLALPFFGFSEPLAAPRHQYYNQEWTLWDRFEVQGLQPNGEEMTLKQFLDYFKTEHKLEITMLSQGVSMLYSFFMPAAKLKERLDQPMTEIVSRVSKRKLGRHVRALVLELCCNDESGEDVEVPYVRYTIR

Uba6 (Uba6_Apo; Uba6_WT) [2] = target: T2, Uba6 (Uba6_Apo; Uba6_WT); assay: binding test, method not given

Compound `O=P(O)(O)O[C@@H]1[C@H](O)[C@H](O)[C@@H](OP(=O)(O)O)[C@H](OP(=O)(O)O)[C@H]1O` [InsP3, D-myo-Inositol 1,4,5-trisphosphate] has a melting temperature (Uba6 SCCH domain; 100 μM InsP3) of 47 °C and a Kd (Uba6 (Uba6_Apo; Uba6_WT) [1]) of 248 nM.
`O=P(O)(O)O[C@@H]1[C@@H](OP(=O)(O)O)[C@H](OP(=O)(O)O)[C@H](O)[C@H](OP(=O)(O)O)[C@H]1OP(=O)(O)O` [InsP5, D-myo-Inositol 1,3,4,5,6-pentakisphosphate] gave a melting temperature (Uba6 SCCH domain; 100 μM InsP5) of 54 °C and a Kd (Uba6 (Uba6_Apo; Uba6_WT) [1]) of 73 nM.
`O=P(O)(O)O[C@H]1[C@H](OP(=O)(O)O)[C@@H](OP(=O)(O)O)[C@H](OP(=O)(O)O)[C@@H](OP(=O)(O)O)[C@H]1OP(=O)(O)O` [InsP6] was tested, and the IC50 (Uba1 (Uba1_WT)) was “InsP6 failed to inhibit Uba1 activation of Ub”.
In the case of `O[C@H]1[C@H](O)[C@@H](O)[C@H](O)[C@@H](O)[C@H]1O` [myo-inositol], the “binding test, method not given” value (Uba6 (Uba6_Apo; Uba6_WT) [2]) is reported as “myo-inositol (which lacks phosphates) fails to bind with Uba6 with detectable affinity”.
